The values that follow come from article PMC7450057, “Enhancing intracellular accumulation and target engagement of PROTACs with reversible covalent chemistry” (Nature Communications, 2020).

Structures are written as SMILES. Where “and” joins values, the source holds several entries; their conditions need not be identical. Equal entries are not always repeated.

Broadly, the AUC is concentration integrated over time. Read a low AUC as low exposure. One may read the Cmax as the peak of the concentration-time curve.

Series [1] concerns IKZF3. Briefly: Splenic IKZF3 level in mice after single RC-1 injection (western blot). The series is classed as in vivo, ICR mice. The settings on record: for IKZF3 level, mean: Figure 5d, DMSO = 100; for IKZF3 quantification: Supplementary Figure 8, individual animals. As to the method: (§1) To investigate the protein degradation effect of RC-1 in vivo, mice were subjected to single RC-1 administration at the dose of 50 or 100 mg kg^−1 (i.p.) or seven once-daily RC-1 administration at the dose of 20 mg kg^−1 (i.p.) (n = 2–3). Twenty-four hours after the one-time RC-1 injection or 24 h after the 7th injection, mice were anesthetized with isoflurane and the whole spleen was dissected and stored at −80 °C for western blot analysis of protein level.
(§2) Supplementary Figure 8. Protein degradation by BTK PROTAC RC-1 in mouse spleen. ICR mice were subjected to single IP injection of RC-1 at the dose of 50 mg/kg (n = 4) or 100 mg/kg (n = 3) and spleens were harvested 24 h after injection. (a) The splenic p-BTK(Y233), BTK, IKZF1 and IKZF3 levels were measured with Western blot. (b). Quantification of protein levels shown in (a). Data are presented as mean values ± SEM.
(§3) Asterisks indicate that the differences between samples are statistically significant, using two-tailed, unpaired t- […]
(§4) test (* p < 0.05; significant).
(§5) (1 picture or pasted object on this page, not shown here)

In series [2] the target is T1, {BTK-PROTAC-CRBN} ternary complex (Homo sapiens, UniProt Q06187+Q96SW2).
T1 construct: full-length CRBN was first cloned into pcDNA3 containing EGFP; expressed in transfected cells; host or cells: HEK293T/17
Briefly: BTK-SPPIER imaging of ternary complex formation in live cells. The following applies: HEK293T/17 cells, 10 µM. It is filed as cell-based. The source says: To visualize small molecule-induced protein–protein interactions (PPIs), we recently applied fluorophore phase transition-based principle and designed a PPI assay named separation of phases-based protein interaction reporter (SPPIER)[36]. A SPPIER protein design includes three domains, a protein-of-interest, an enhanced GFP (EGFP), and a homo-oligomeric tag (HOTag). Upon small molecule-induced PPI between two proteins-of-interest, multivalent PPIs from HOTags drive EGFP phase separation, forming brightly fluorescent droplets. […] If PROTACs can induce {BTK-PROTAC-CRBN} ternary complex formation in cells, they will crosslink the BTK^KD-EGFP-HOTag6 tetramers and the CRBN-EGFP-HOTag3 hexamers to produce EGFP phase separation, which can be conveniently visualized with a fluorescence microscope. […]
HEK293T/17 cells were transiently transfected with the plasmid using calcium phosphate transfection reagent or lipofectamine. […] Fluorescence images were acquired with an exposure time of 50 ms for EGFP. […]
For analysis of the SPPIER signal, images were processed in imageJ. The sum of droplet pixel fluorescence intensity and cell pixel intensity was scored using the Analyze Particle function in imageJ.

Series [3] has as its system IKZF1. The series is described as follows: Splenic IKZF1 level in mice after single RC-1 injection (western blot). It is filed as in vivo, ICR mice. The following applies: for IKZF1 level, mean: Figure 5d, DMSO = 100; for IKZF1 quantification: Supplementary Figure 8, individual animals. As to the method: as §1, §2, §3, §4, §5
A general note: Immunoblotting shows a protein as a band on a membrane.

Series [4] can be described thus: Pharmacokinetics of RC-1 in mice. The series is classed as in vivo, ICR mice. As to the method:
The pharmacokinetic profile of the BTK PROTAC RC-1 was evaluated in female ICR mice (weighing 22-28 g, n = 3). RC-1 was formulated in a […] solvent (30% PEG-400, 5% Tween 80, and 5% DMSO in deionized water) and was administered in a single IP injection (20 mg kg^−1). Blood samples (25 µL) were withdrawn from the tail vein at the time points of 10 min, 30 min, 1 h, 2 h, 4 h, 8 h, and up to 24 h after dosing. The blood samples were collected into 1.5 mL centrifuge tubes coated with 0.5 M EDTA and were immediately centrifuged at 12,000 × g at 4 °C for 15 min. The resultant plasma was extracted with 9 vol of acetonitrile (containing internal standard: 250 nM of RNC-Ctrl) and then were centrifuged at the same conditions described above. The supernatant was stored at −80 °C for liquid chromatography-mass spectrometry analysis. The standard curve was established by serially diluted RC-1 in plasma collected from naïve mice (from 5.0 to 0.003 μg mL^−1, 4-fold dilution). The PK parameters were calculated with the Microsoft Excel PK Solver.

[5] abbreviates: female, mouse, ip, 20 mg kg^−1, i.p., ICR mice, plasma.

T1 sequence (Q06187 382-659 limits assumed): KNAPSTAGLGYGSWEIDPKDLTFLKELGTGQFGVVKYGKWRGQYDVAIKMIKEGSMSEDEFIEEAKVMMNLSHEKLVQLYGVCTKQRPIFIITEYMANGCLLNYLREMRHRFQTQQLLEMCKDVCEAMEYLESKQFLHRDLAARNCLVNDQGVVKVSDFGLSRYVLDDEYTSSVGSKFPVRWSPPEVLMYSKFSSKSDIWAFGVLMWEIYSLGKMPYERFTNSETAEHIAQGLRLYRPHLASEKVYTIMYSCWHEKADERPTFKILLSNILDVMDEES
T1 sequence (Q96SW2 whole entry): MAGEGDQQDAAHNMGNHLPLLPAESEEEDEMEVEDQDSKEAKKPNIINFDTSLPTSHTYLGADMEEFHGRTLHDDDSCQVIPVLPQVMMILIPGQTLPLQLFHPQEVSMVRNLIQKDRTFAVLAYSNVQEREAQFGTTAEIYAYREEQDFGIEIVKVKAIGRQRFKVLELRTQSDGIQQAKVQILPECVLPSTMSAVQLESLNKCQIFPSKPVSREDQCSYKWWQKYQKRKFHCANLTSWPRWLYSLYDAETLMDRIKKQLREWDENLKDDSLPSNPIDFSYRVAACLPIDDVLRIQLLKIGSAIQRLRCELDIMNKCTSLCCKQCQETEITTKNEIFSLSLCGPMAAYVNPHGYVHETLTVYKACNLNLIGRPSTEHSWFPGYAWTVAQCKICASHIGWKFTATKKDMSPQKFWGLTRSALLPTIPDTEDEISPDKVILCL

Take `CN(CCCNC(=O)CNc1cccc2c1C(=O)N(C1CCC(=O)NC1=O)C2=O)C(C)(C)C=C(C#N)C(=O)N1CCC[C@@H](n2nc(-c3ccc(Oc4ccccc4)cc3)c3c(N)ncnc32)C1` (stereo partly shown) [RC-1]: the entries for the “IKZF3 level, mean” value in series [1] (1 injection) and in series [1] (7 injections) were 34.6975 and 73.2929, respectively. The IKZF3 quantification is 18.4248 and 33.3032 and 114.952 and 16.6702 in series [1] (RC-1 50 mg/kg, 50 mg/kg); 2.1 and 60.2254 and 21.7286 in series [1] (RC-1 100 mg/kg, 100 mg/kg). Besides, the “green fluorescent droplets (ternary complex formation)” value in series [2] is “induced appreciable green fluorescent droplets”. The figures for the “IKZF1 level, mean” value in series [3] (1 injection) and in series [3] (7 injections) were 82.288 and 77.6802, respectively. For the same compound, the IKZF1 quantification in series [3] (RC-1 50 mg/kg, 50 mg/kg) is 32.4273 and 61.2234 and 87.896 and 43.9089; in series [3] (RC-1 100 mg/kg, 100 mg/kg), 24.57 and 78.1459 and 58.0151. In series [4] (setting [5]), this compound registered an AUC of 72 µM·h. In series [4] (setting [5]), the highest level (Cmax) was 20 µM. Also, the half-life in series [4] (female, mouse, plasma, ip, 20 mg kg^−1, i.p., ICR mice, read-out: plasma half-life (t1/2) (converted)) is 3.4 h. Moreover, the “plasma concentration maintained over 24 h” value in series [4] (single i.p. injection 20 mg/kg) is listed as “above 200 nM”.
